Experimental data taken from the OligoGym collection.
These antisense oligonucleotides have a phosphorothioate backbone; sugars and methylation of C are not fully specified.

biological target: NCOA1; conditions: ASO
Further: test concentration or dose not given here.

Row | Sequence | remaining target (mRNA or protein) (fraction of control)
1 | TCCCCGTTTGAACTGGTA | 0.63
2 | GGATTGACCGAGGGATTT | 0.52
3 | CTCTTGTTCCATTCTCTT | 0.61
4 | TCCATCTGTTCTTTCTTT | 0.84
5 | GCGTTGCTTGTTGTGGTG | 0.43
6 | ACCTCCTGAAGAGTTAGC | 0.58
7 | AAGTGGTTATTCAGTCAG | 0.74
8 | TTAGCAGGGTCGGATGAA | 0.4

biological target: CHUK; conditions: ASO

Row | Sequence | remaining target (mRNA or protein) (fraction of control)
9 | AGGATGTGTACTATCTTC | 0.79
10 | ACAGACAGACGTTCCCGA | 0.85
11 | CTTAATTGCTATTTTGAG | ≥ 1
12 | TGCCCAGCCGCTCCCGCA | 0.85
13 | ATACAGTTTTACTTTTAT | ≥ 1
14 | AGTATCTGGCTTTCTTTA | ≥ 1
15 | GCTGTCACTGTAGGAGTG | 0.75
16 | CTCTCCAAGTCAAGCTGA | 0.49
17 | CTACTAAACCGAACTTCT | ≥ 1
18 | TTCTTGAGAACCAGTATT | ≥ 1
19 | TTCCCGATGCTGGTACAG | 0.63
20 | AAATATACACTTTGGATC | ≥ 1
21 | TGTTCCAGAGATTCCATC | ≥ 1
22 | TTACTGAGGGCCACTTCC | 0.48
23 | CTGAGATCAAAGTGTTCT | ≥ 1
24 | TATTTTATGTATTATCTT | ≥ 1
25 | CTTAGCTCTAGGCGACAA | 0.56
26 | GGTAACAGAAAAGAAATT | ≥ 1
27 | AATTTACACAATCAGATA | ≥ 1
28 | ATTGGCATGGTTCAACTT | 0.69

Row | Sequence | remaining target (mRNA or protein) (fraction of control)
29 | TCAATACGAGACTGTAGT | ≥ 1
30 | AGAACACATTGAGAGGCT | 0.8
31 | TAGAAGAGGCACATCATG | 0.76
32 | TTCAGCCCACACTTTACG | 0.58
33 | AAGTCTCCCCATCTTGAG | ≥ 1
34 | ACATTGCTGCCCTTTGTC | 0.54
35 | CTGAGGGTCCCAATTCAA | 0.88
36 | TAATCTGGATTTCATGGC | ≥ 1
37 | ATCTTGGCTGCTTCAAAG | 0.6
38 | TTAAACTACAAAGGCTAT | ≥ 1
39 | CCCTGCATGAACATGACA | 0.47
40 | TCTCGATGTATAATTTTG | ≥ 1
41 | TCTCCTCCAGAACAGTAT | ≥ 1
42 | GACATAATCTGATCCTCC | ≥ 1
43 | AGCAATACATTCAAATAC | ≥ 1
44 | CAAGAGAGCGGGCAGAAC | ≥ 1
45 | TGAGCACACGGTCCTGAC | 0.79
46 | CTTCTGCTTACAGCCCAA | 0.56
47 | TGTGTAAGGCTTATTCTC | 0.91
48 | CATAGTGGATGGCCTTTT | 0.66

biological target: MAP4K4; conditions: ASO

Row | Sequence | remaining target (mRNA or protein) (fraction of control)
49 | AGACCCGGGCTGGGATCCTG | 0.92
50 | TGGACAATCATGGTTTTCAC | 0.71
51 | ATGTAAGCGATCCAGTCTTC | 0.67
52 | CCGCTTCTGTCTCTCTGCCA | 0.25
53 | TGTAGGCATCTCTCCCCACT | 0.42
54 | TCCAAATGACTTAAAGGCCA | 0.68
55 | GCCGTACATCTTCCACTGCT | 0.45
56 | GCATGGAATCCAGCACAGGA | 0.69
57 | AAGTTTCACCTCTGCATTCT | 0.26
58 | CACTGCATTTTCCAGGCGCT | 0.49
59 | GCTCCTTTCCTGCTGCGGTG | 0.37
60 | AGAGGGCCGCTGCATGTAAT | 0.36
61 | CTCTGCAGGGCGGGATGCAC | ≥ 1
62 | GGATCATTGTGAAGTATTTT | 0.84
63 | AGAGTAGACTCACCAGGCAC | 0.75
64 | GGACTCGTCAGCCCCTTCCT | 0.16
65 | CAGTTACAAGGAATTCCAAG | 0.93
66 | GCTCTCATTGGATGCATGTC | 0.39
67 | CCTCTCCTCTTCTTCTTTGC | 0.64
68 | CTTCCTCTTCATCCTCAGTG | 0.34
69 | GACTTGGATGATGATCTCAC | 0.86
